Measurements: patent US20250281466A1, “USE OF CLOPIDOGREL OR COMBINATIONS THEREOF TO TREAT AMYOTROPHIC LATERAL SCLEROSIS, DAMAGES CAUSED BY THE NORMAL AGING PROCESS, NERVE INJURIES, MUSCULAR DYSTROPHY, STRENUOUS PHYSICAL ACTIVITIES AND OTHER CONDITIONS THAT AFFECT SYNAPSES AS WELL AS SKELETAL MUSCLES” (Brown University, priority 2024, published 2025)
Where two headings read alike, the source gives them in different places.

Legend:
[1] = general statement, no test described; cited from earlier work
[2] = tested on: SOD1^G93A mice; details: EDL of P120 SOD1^G93A mice, versus vehicle, *p<0.05, n=7-8
Protocol: (§1) We treated SOD1^G93A mice with either vehicle or Clopidogrel (1 mg/kg) for 30 days starting at symptom onset (90 days old). […] The EDL and TA are hindlimb muscles mostly composed of fast-twitch fibers that play similar function in leg movement. These muscles are adjacent to each other and are affected early in ALS38.
Discussion of Research Design (current) and Experimental Methods: Currently Disclosed Aim 1A: Identify the optimal Clopidogrel dose to protect NMJs from ALS.

[3] = tested on: mice; details: general statement before a planned dose pilot study; cited from earlier work
[4] = tested on: SOD1^G93A mice; details: SOD1^G93A mice examined at 15 and 30 days after treatment starting at 90 days of age, compared to vehicle (FIG. 5B)
From the text: NeuroScore involved observing the ability of mice to control the position and mobility of both hindlimbs independently of each other. In this 0-4 point scoring system, 0 represents normal control and 4 represents complete loss of the ability to command hindlimb movement (FIG. 5A).
We also assessed disease progression in mice using the neurological scoring system (NeuroScore) which is used to determine disease stage in SOD1^G93A mice. NeuroScore involved observing the ability of mice to control the position and mobility of both hindlimbs independently of each other. In this 0-4 point scoring system, 0 represents normal control and 4 represents complete loss of the ability to command hindlimb movement (for example, see FIG. 5A).

[5] = tested on: SOD1^G93A mice; details: P120 SOD1^G93A mice
From the text: In FIGS. 4A-4H, DigiGait™ was used for gate analysis of P120 SOD1^G93A mice treated with Vehicle or the P2Y12 antagonist Clopidogrel. […] Scale bar=10 μm.
To this end, before sacrificing mice for histological analysis, we examined the gait patterns of SOD1^G93A mice treated with Clopidogrel and vehicle using the DigiGait™ system.

[6] = tested on: SOD1^G93A mice; details: Clopidogrel 1 mg/kg for 30 days from 90 days old, versus vehicle (FIG. 3C)
Protocol: as §1

[7] = tested on: mouse model of ALS
From the text: FIGS. 11A-11F provide a summary of Clopidogrel treatment on mouse model of ALS. FIG. 11A (control) and FIG. 11B provide images showing neuromuscular junctions (NMJs) treated with vehicle (control) and Clopidogrel. Blue depicts axons and Magenta muscle region in contact with motor axons.
FIGS. 11A-11F provide a summary of Clopidogrel treatment on a mouse model of ALS. FIG. 11A (control, left) and FIG. 11B (Clopidogrel, right) provide images showing neuromuscular junctions (NMJs) treated with vehicle (control, left) and Clopidogrel (right). Blue (or grey in upper panels) depicts axons and Magenta (grey in lower panels) muscle region in contact with motor axons.

SMILES: COC(=O)[C@H](c1ccccc1Cl)N1CCc2sccc2C1 [Clopidogrel]
- crossing of the blood-brain-barrier (BBB) [1]: does not cross the blood-brain-barrier
- fully denervated NMJs (analysis of NMJ innervation, FIG. 3B) [2]: fewer fully denervated NMJs
- side effects in mice [3]: lethargy, weight loss and internal bleeding
- disease progression by NeuroScore (0-4 point scoring system) [4]: the disease progressed slower
- stride frequency (DigiGait) ([5]; compared to vehicle, n=3-5 (FIG. 4A, 4B)): increases stride frequency
- swing duration (DigiGait) ([5]; compared to vehicle, n=3-5 (FIG. 4C, 4D)): reduces swing duration
- percent brake of stride (DigiGait) ([5]; forelimb and hindlimb, versus vehicle (FIG. 4G, 4H)): increased
- brake time (DigiGait) ([5]; versus vehicle (FIG. 4E, 4F)): increased the brake time
- TA muscle mass [6]: significantly preserved the overall mass of the tibialis anterior (TA) muscle
- TA muscle mass ([6]; listed as clopidogrel): higher TA muscle mass
- intactness of muscle regions in contact with motor axons (NMJ) ([7]; versus vehicle control (FIG. 11C, 11E)): more intact
- number of denervated NMJs ([7]; versus vehicle control (FIG. 11D, 11F)): reduces the number of denervated NMJs
